Inconclusive results and toxic doses are left out.
Tested on: CD2F1 mice, ip Colon 26 adenocarcinoma, median survival T/C
Experiment: NCI In Vivo Anticancer Drug Screen. Data for tumor model Colon 26 Adenocarcinoma (intraperitoneal) in CD2F1 (CDF1) mice
Conditions: endpoint: median survival time, higher = longer survival
Protocol: The antitumor activity of compounds was measured in mice bearing transplantable tumors. Survival or tumor size were measured and the results are expressed as the measurement made in the treated group (T) divided by the measurement made in the vehicle treated control group (C). The tumor model used in this assay is Colon 26 Adenocarcinoma (intraperitoneal) in CD2F1 (CDF1) mice

[1] = dose: 12.5 mg/kg/injection, schedule: Q04DX002 (ip), vehicle: distilled water + Tween-80
[2] = dose: 25.0 mg/kg/injection, schedule: Q04DX002 (ip), vehicle: distilled water + Tween-80
[3] = dose: 50.0 mg/kg/injection, schedule: Q04DX002 (ip), vehicle: distilled water + Tween-80

In the case of `Nc1ncnc2c1ncn2C1OC(CO)CC1O` (stereo unspecified), the T/C (dose: 37.5 mg/kg/injection, schedule: Q04DX002 (ip), vehicle: Klucel (hydroxypropylcellulose) (HPC)) is reported as 101 % of control, the T/C (dose: 75.0 mg/kg/injection, schedule: Q04DX002 (ip), vehicle: Klucel (hydroxypropylcellulose) (HPC)) is reported as 110 % of control and the T/C (dose: 150.0 mg/kg/injection, schedule: Q04DX002 (ip), vehicle: Klucel (hydroxypropylcellulose) (HPC)) is reported as 93 % of control.
`C[C@@]1(CO)[C@@H](O)CC[C@@]2(C)[C@H]1CC[C@H]1C[C@@H]3CC12CC[C@]3(O)CO` was tested, and the T/C [1] was 103 % of control, the T/C [2] was 109 % of control and the T/C [3] was 95 % of control. For the same molecule, the T/C (dose: 100.0 mg/kg/injection, schedule: Q04DX002 (ip), vehicle: distilled water + Tween-80) was 109 % of control, the T/C (dose: 200.0 mg/kg/injection, schedule: Q04DX002 (ip), vehicle: distilled water + Tween-80) was 91 % of control and the T/C (dose: 400.0 mg/kg/injection, schedule: Q04DX002 (ip), vehicle: distilled water + Tween-80) was 116 % of control.
`NC(=O)c1ncn(C2OC(CO)C(O)C2O)c1O` (stereo unspecified) was tested, and the T/C (dose: 50.0 mg/kg/injection, schedule: Q04DX002 (ip), vehicle: Klucel (hydroxypropylcellulose) (HPC)) was 107 % of control, the T/C (dose: 100.0 mg/kg/injection, schedule: Q04DX002 (ip), vehicle: Klucel (hydroxypropylcellulose) (HPC)) was 98 % of control and the T/C (dose: 200.0 mg/kg/injection, schedule: Q04DX002 (ip), vehicle: Klucel (hydroxypropylcellulose) (HPC)) was 107 % of control. For the same molecule, the T/C (dose: 400.0 mg/kg/injection, schedule: Q04DX002 (ip), vehicle: Klucel (hydroxypropylcellulose) (HPC)) was 111 % of control.
With `NNC(=O)c1ccncc1` the T/C (dose: 72.0 mg/kg/injection, schedule: Q04DX002 (ip), vehicle: saline) was 103 % of control and the T/C (dose: 144.0 mg/kg/injection, schedule: Q04DX002 (ip), vehicle: saline) was 102 % of control.
For `CN1C(=O)NC(c2ccc(Cl)cc2)(c2ccc(Cl)cc2)C1=O`, the T/C [1] was 106 % of control, the T/C (dose: 12.5 mg/kg/injection, schedule: Q04DX002 (ip), vehicle: saline with Tween-80) was 105 % of control and the T/C [2] was 100 % of control. For the same molecule, the T/C (dose: 25.0 mg/kg/injection, schedule: Q04DX002 (ip), vehicle: saline with Tween-80) was 111 % of control, the T/C [3] was 114 % of control and the T/C (dose: 50.0 mg/kg/injection, schedule: Q04DX002 (ip), vehicle: saline with Tween-80) was 97 % of control. The T/C (dose: 100.0 mg/kg/injection, schedule: Q04DX002 (ip), vehicle: saline with Tween-80) was 102 % of control, the T/C (dose: 200.0 mg/kg/injection, schedule: Q04DX002 (ip), vehicle: saline with Tween-80) was 91 % of control and the T/C (dose: 400.0 mg/kg/injection, schedule: Q04DX002 (ip), vehicle: saline with Tween-80) was 91 % of control.
`Cc1ccc(S(=O)(=O)N/N=C/C(=O)O)cc1` was tested, and the T/C (dose: 12.5 mg/kg/injection, schedule: Q04DX003 (ip), vehicle: saline with Tween-80) was 174 % of control, the T/C (dose: 25.0 mg/kg/injection, schedule: Q04DX003 (ip), vehicle: saline with Tween-80) was 177 % of control and the T/C (dose: 50.0 mg/kg/injection, schedule: Q04DX003 (ip), vehicle: saline with Tween-80) was 212 % of control. The T/C (dose: 100.0 mg/kg/injection, schedule: Q04DX003 (ip), vehicle: saline with Tween-80) was 196 % of control and the T/C (dose: 200.0 mg/kg/injection, schedule: Q04DX003 (ip), vehicle: saline with Tween-80) was 193 % of control.
For `CCC1OCC(C(Cl)CCl)O1` (stereo unspecified), the T/C (dose: 12.5 mg/kg/injection, schedule: Q04DX003 (ip), vehicle: Klucel (hydroxypropylcellulose) (HPC)) was 116 % of control, the T/C (dose: 25.0 mg/kg/injection, schedule: Q04DX003 (ip), vehicle: Klucel (hydroxypropylcellulose) (HPC)) was 97 % of control and the T/C (dose: 50.0 mg/kg/injection, schedule: Q04DX003 (ip), vehicle: Klucel (hydroxypropylcellulose) (HPC)) was 99 % of control. The T/C (dose: 100.0 mg/kg/injection, schedule: Q04DX003 (ip), vehicle: Klucel (hydroxypropylcellulose) (HPC)) was 104 % of control and the T/C (dose: 200.0 mg/kg/injection, schedule: Q04DX003 (ip), vehicle: Klucel (hydroxypropylcellulose) (HPC)) was 92 % of control.
In the case of `O=[N+]([O-])O.[Ga]`, the T/C (dose: 12.5 mg/kg/injection, schedule: Q01DX005 (ip), vehicle: saline) is reported as 97 % of control, the T/C (dose: 12.5 mg/kg/injection, schedule: Q04DX003 (ip), vehicle: saline) is reported as 103 % of control and the T/C (dose: 25.0 mg/kg/injection, schedule: Q01DX005 (ip), vehicle: saline) is reported as 96 % of control. The T/C (dose: 25.0 mg/kg/injection, schedule: Q04DX003 (ip), vehicle: saline) was 108 % of control, the T/C (dose: 50.0 mg/kg/injection, schedule: Q01DX005 (ip), vehicle: saline) was 87 % of control and the T/C (dose: 50.0 mg/kg/injection, schedule: Q04DX003 (ip), vehicle: saline) was 106 % of control. For the same molecule, the T/C (dose: 100.0 mg/kg/injection, schedule: Q04DX003 (ip), vehicle: saline) was 87 % of control.
